In data set [1] the test system is MCF-7 breast cancer cells. Kind of data set: cytotoxicity assay on MCF-7 breast cancer cells. The class given is cell-based, human. The method, then: The cytotoxic activity of trans-desoxylaulimalide (12a) was evaluated. An initial cytotoxicity study with desoxylaulimalide (12a) was conducted to compare compound (12a) to taxol and laulimalide for effects on the growth of human MCF-7 breast cancer cells. Cytotoxicity assays on MCF-7 were performed as described in P. Giannakakou et al., J. Biol. Chem., 272, 17118–17125 (1997). Consistent with its activity in a tubulin assembly assay, desoxylaulimalide (12a) was an inhibitor of cell growth. […] Thus, desoxylaulimalide (12a) is about 1/50 as active as laulimalide in the MCF-7 cells. This compares with the 340-fold lower activity in MDA-MB-435 breast cancer cells observed for isolaulimalide (9), which also lacks the epoxide moiety.

For a further data set, the system named is tubulin. Kind of data set: tubulin assembly assay / microtubule stabilization. The class given is biochemical.
For data set [2], the system named is SKVLB-1 multidrug resistant cell line. As to conditions: multidrug resistant cell line SKVLB-1; read-out: IC50 against SKVLB-1; cited from earlier work.
The test system of data set [3] is MDA-MB-435 breast cancer cells. The conditions noted are these: cited from earlier work.
A further data set has as its system KB cell line. The conditions noted are these: cited from earlier work.
Data set [4] concerns P388, A549, HT29, and MEL28 cell lines. As to conditions: range over four cell lines; cited from earlier work.
The subject of data set [5] is P-glycoprotein-mediated MDR cell lines. The conditions noted are these: cited from earlier work.
The test system of data set [6] is MDA-MB-435 and SK-OV-3 cell lines. As to conditions: drug-sensitive cell lines MDA-MB-435 and SK-OV-3; read-out: IC50, inhibition of cell proliferation; cited from earlier work.
[7] abbreviates: Homo sapiens, MCF7, read-out: IC50, inhibition of cell growth.

This is an account of results in US7109235B2, “Microtubule stabilizing compounds” (The Board of Trustees of the University Illinois, priority 2002, dated 2006).

In brackets after ≈: the same amount, converted by molar mass. Like-named read-outs stand apart in the source and are kept apart here. Where only a bound is given, the exact number is not on record here.

In the case of `C=C1C[C@H](C)C[C@@H]2CC=C[C@@H](C/C=C\C(=O)O[C@H]([C@@H](O)/C=C/[C@@H]3CC(C)=CCO3)C/C=C/[C@@H](O)C1)O2` [12a, desoxylaulimalide], the IC50 in data set [1] (setting [7]) was determined as 360 nM. Further, the “activity relative to laulimalide” value in data set [1] (MCF-7 cells) is “about 1/50”. For the same molecule, in the data set on tubulin, the “effect on the tubulin assembly reaction” value was “stimulates the tubulin assembly reaction”. Moreover, the “potency with respect to microtubule stabilization” value in the data set with tubulin (compared with laulimalide (2)) is reported as “potency similar to laulimalide (2)”.

Regarding `C=C1CC(C)C[C@@H]2CC=C[C@@H](C/C=C\C(=O)O[C@@H]3C[C@H](O[C@@H]3/C=C/[C@H]3CC(C)=CCO3)[C@H](O)C(O)C1)O2` (stereo partly drawn) [isolaulimalide], the values for the IC50 (in data set [2]; with KB cell line (read-out: IC50 against KB cell line)) were 2600 nM and above 200 nM, respectively. Moreover, the “fold lower activity (compared with laulimalide)” value in data set [3] is 340 fold.

On to `C=C1C[C@H](C)C[C@@H]2CC=C[C@@H](C/C=C\C(=O)O[C@H]([C@@H](O)/C=C/[C@@H]3CC(C)=CCO3)C[C@@H]3O[C@H]3[C@@H](O)C1)O2` [laulimalide], for which, in data set [4], the “IC50, cytotoxicity against P388, A549, HT29, and MEL28 cell lines” value is 0.01 to 0.05 µg/mL. In addition, the IC50 in data set [2] was 1200 nM; in data set [1] (setting [7]), 7 nM; in data set [6], 5 to 12 nM. Moreover, in data set [5], the “fold more potent than taxol” value was 100 fold. Also, the “IC50, cytotoxicity against KB cell line” value with KB cell line is 0.015 µg/mL (≈ 0.0291 µM).

For the molecule `CC(=O)O[C@H]1C(=O)[C@@]2(C)[C@H]([C@H](OC(=O)c3ccccc3)[C@]3(O)C[C@H](OC(=O)[C@H](O)[C@@H](NC(=O)c4ccccc4)c4ccccc4)C(C)=C1C3(C)C)[C@]1(OC(C)=O)CO[C@@H]1C[C@@H]2O` [taxol], the IC50 in data set [1] (MCF7, human MCF-7 breast cancer cells, read-out: IC50, inhibition of cell growth) was 2.4 nM; in data set [6], 1000 to 2000 nM.
